The results in this text go back to ChEMBL document CHEMBL1201862, “PubChem BioAssay data set” (2004).

Among the test systems are Malme-3M; SK-MEL-28; MDA-MB-435; SF-295; RPMI-8226; NCI-H23; CCRF-CEM; A549; SK-OV-3; OVCAR-5; SF-539; Hs-578T; OVCAR-3; SW-620; MOLT-4; UACC-62; DU-145; A498; UO-31.
Holding throughout (experiment): NCI anticancer screen, dose series, 48 h

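All cell lines were grown in 96-well plates and treated with compound for 48 hours. Here, GI50 denotes the concentration required for 50% inhibition of growth.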 Calls of active or inactive are those of the source. No stated cut-off is given here; in the data, active = GI50 up to about 1.1 µM and inactive = higher.

As to `Cc1cccc2nc3c(=O)[nH]c(=O)nc-3n(C)c12`, the GI50 with Malme-3M is 21.3 µM (inactive); in the assay with SK-MEL-28, > 100 µM (inactive); in the assay on MDA-MB-435, 17.6 µM (inactive); in the assay with SF-295, 92.9 µM (inactive); in the assay on RPMI-8226, 29.7 µM (inactive); with NCI-H23 it was 39.1 µM (inactive). In addition, the GI50 with CCRF-CEM was 28.6 µM (inactive); in the assay on A549 it was 84.7 µM (inactive); in the assay on SK-OV-3 it was > 100 µM (inactive); with OVCAR-5 it was > 100 µM (inactive); in the assay on SF-539 it was 41.1 µM (inactive); with Hs-578T, 86.9 µM (inactive). In addition, the GI50 in the assay on OVCAR-3 was 28 µM (inactive); with SW-620, 39.9 µM (inactive); in the assay with MOLT-4, 43 µM (inactive); in the assay on UACC-62, 31.9 µM (inactive); in the assay with DU-145, > 100 µM (inactive).
For `CC1(c2ccc(Cl)cc2)c2ccccc2C(=O)N1CCCN1C(=O)c2ccccc2C1=O` (configuration not stated), the GI50 in the assay on SK-MEL-28 is 69.5 µM (inactive); with MDA-MB-435, 33.3 µM (inactive); in the assay with SF-295 it was 24.2 µM (inactive); in the assay on RPMI-8226, 33.3 µM (inactive); in the assay with A498, > 100 µM (inactive); with NCI-H23, 25.4 µM (inactive). The GI50 in the assay on CCRF-CEM is 45.1 µM (inactive); with UO-31, 39.9 µM (inactive); in the assay with A549, 24.7 µM (inactive); with SK-OV-3, 31.2 µM (inactive); in the assay on Hs-578T it was 35.4 µM (inactive); in the assay with OVCAR-3, 32.7 µM (inactive). For the same compound, the GI50 in the assay with SW-620 is 56.8 µM (inactive); in the assay on MOLT-4 it was 29.5 µM (inactive); in the assay with UACC-62 it was 30.1 µM (inactive); with DU-145 it was 40.3 µM (inactive).
As to `Cc1nc(C)c(C(=O)NNC(=O)Cc2ccccc2)cc1C(=O)NNC(=O)Cc1ccccc1`, the GI50 in the assay with MDA-MB-435, in the assay with SF-295, with RPMI-8226, in the assay with A498, in the assay with NCI-H23 and in the assay with CCRF-CEM was > 100 µM (inactive) each time. Also, the GI50 in the assay on UO-31, in the assay on A549, in the assay with SK-OV-3, in the assay on OVCAR-5, with SF-539 and with Hs-578T was > 100 µM (inactive) throughout. In addition, the GI50 in the assay on OVCAR-3, in the assay on SW-620, in the assay with MOLT-4, in the assay on UACC-62 and in the assay on DU-145 was > 100 µM (inactive) in each case.
For `Cc1nc(OCc2ccccc2)c2ncn(CCO)c2n1`, the GI50 in the assay with SK-MEL-28, with MDA-MB-435, with SF-295, with RPMI-8226, in the assay on A498 and in the assay with NCI-H23 was > 100 µM (inactive) throughout. In addition, the GI50 in the assay with CCRF-CEM, in the assay with UO-31, in the assay on A549, with SK-OV-3, in the assay with OVCAR-5 and in the assay on SF-539 was > 100 µM (inactive) in each case. The GI50 in the assay with Hs-578T, in the assay with OVCAR-3, with SW-620, in the assay with MOLT-4, in the assay with UACC-62 and in the assay with DU-145 was > 100 µM (inactive) throughout.
As for `c1ccc(-c2c(-c3[nH]c4ccccc4c3-c3ccccc3)[nH]c3ccccc23)cc1`, the GI50 is 13.7 µM (inactive) with Malme-3M; 11.4 µM (inactive) in the assay on SK-MEL-28; 3.44 µM (inactive) in the assay with MDA-MB-435; 4.18 µM (inactive) with SF-295; 2.94 µM (inactive) in the assay on RPMI-8226; 2.63 µM (inactive) with NCI-H23. Also, the GI50 in the assay on CCRF-CEM was 3.4 µM (inactive); with UO-31, 3.68 µM (inactive); in the assay on A549 it was 3.5 µM (inactive); with SK-OV-3, 8.15 µM (inactive); in the assay on OVCAR-5, 11.1 µM (inactive); in the assay with SF-539 it was 7.96 µM (inactive). Also, the GI50 in the assay on Hs-578T was 9.38 µM (inactive); with OVCAR-3, 2.3 µM (inactive); with SW-620 it was 3.34 µM (inactive); in the assay with MOLT-4 it was 3.35 µM (inactive); with UACC-62 it was 9.98 µM (inactive); with DU-145, 3.38 µM (inactive).
Regarding `O=C(O)c1ccccc1CC1Cc2ccc3c(c2C1=O)CCC3` (configuration not stated), the GI50 with Malme-3M, in the assay with SK-MEL-28, in the assay with MDA-MB-435, with SF-295, with RPMI-8226 and in the assay with NCI-H23 was > 100 µM (inactive) throughout. For the same compound, the GI50 in the assay with CCRF-CEM, in the assay on UO-31, in the assay on A549, with SK-OV-3, in the assay on OVCAR-5 and in the assay with SF-539 was > 100 µM (inactive) throughout. Also, the GI50 with Hs-578T, in the assay on OVCAR-3, in the assay on SW-620, in the assay with MOLT-4, with UACC-62 and in the assay with DU-145 was > 100 µM (inactive) throughout.
For `O=[N+]([O-])c1ccc(NS(=O)(=O)C(F)(F)F)cc1`, the GI50 in the assay on SK-MEL-28 was > 100 µM (inactive); in the assay with MDA-MB-435, > 100 µM (inactive); in the assay on SF-295 it was > 100 µM (inactive); in the assay with A498, > 100 µM (inactive); in the assay on NCI-H23 it was > 100 µM (inactive); in the assay on CCRF-CEM, 92.9 µM (inactive). Also, the GI50 in the assay with UO-31, in the assay on A549, with SK-OV-3, in the assay on OVCAR-5, in the assay with SF-539 and with Hs-578T was > 100 µM (inactive) each time. The GI50 in the assay with OVCAR-3, in the assay on SW-620, with MOLT-4, in the assay with UACC-62 and in the assay with DU-145 was > 100 µM (inactive) each time.
`COc1ccc(-n2c(-c3ccccc3)cc(-c3cccs3)c2-c2cccs2)cc1`: the GI50 in the assay with SK-MEL-28 is > 100 µM (inactive); in the assay with MDA-MB-435 it was > 100 µM (inactive); with SF-295, > 100 µM (inactive); with RPMI-8226, > 100 µM (inactive); in the assay with A498, > 100 µM (inactive); in the assay with NCI-H23, 6.73 µM (inactive). For the same compound, the GI50 was 0.0818 µM (active) in the assay on CCRF-CEM; > 100 µM (inactive) in the assay on UO-31; 39.4 µM (inactive) in the assay on A549; > 100 µM (inactive) in the assay on SK-OV-3; > 100 µM (inactive) in the assay with OVCAR-5; 39.1 µM (inactive) in the assay on SF-539. Moreover, the GI50 in the assay on Hs-578T, with OVCAR-3, in the assay on SW-620, in the assay with MOLT-4, in the assay on UACC-62 and with DU-145 was > 100 µM (inactive) in each case.
For the compound `CSc1ncc2c(n1)-c1ccccc1OC2`, the GI50 in the assay with MDA-MB-435 is 56.4 µM (inactive); with SF-295, 94.2 µM (inactive); with RPMI-8226, > 100 µM (inactive); with A498, 13.3 µM (inactive); with NCI-H23 it was 84.3 µM (inactive); in the assay with CCRF-CEM it was 59.2 µM (inactive). Besides, the GI50 in the assay on UO-31 was 38.8 µM (inactive); in the assay with A549, 52.2 µM (inactive); with SK-OV-3, > 100 µM (inactive); in the assay with OVCAR-5, > 100 µM (inactive); in the assay on SF-539, 37.7 µM (inactive); in the assay on Hs-578T it was 26.5 µM (inactive). Besides, the GI50 is 27.9 µM (inactive) in the assay with OVCAR-3; 62.2 µM (inactive) in the assay with SW-620; 50 µM (inactive) with MOLT-4; 78.2 µM (inactive) in the assay with UACC-62; 39.4 µM (inactive) with DU-145.
Regarding `Nc1ccn(C2CC3OCC3O2)c(=O)n1` (configuration not stated), the GI50 in the assay with SK-MEL-28, with MDA-MB-435, in the assay with SF-295, with RPMI-8226, in the assay on A498 and with NCI-H23 was > 100 µM (inactive) in each case. The GI50 in the assay with CCRF-CEM, with UO-31, in the assay on A549, with SK-OV-3, with OVCAR-5 and with SF-539 was > 100 µM (inactive) throughout. Further, the GI50 in the assay on Hs-578T, in the assay with OVCAR-3, in the assay with SW-620, in the assay on MOLT-4, in the assay on UACC-62 and with DU-145 was > 100 µM (inactive) each time.
Take `COc1ccc(CC2C(=O)NC(C)C(=O)N(C)C3C(=O)N(C)C(Cc4ccc(O)c(c4)Oc4ccc(cc4)C3O)C(=O)NC(C)C(=O)NC(C)C(=O)N2C)cc1.COc1ccc(CC2C(=O)NC(C)C(=O)N(C)C3Cc4ccc(cc4)Oc4cc(ccc4O)CC(C(=O)NC(C)C(=O)NC(C)C(=O)N2C)N(C)C3=O)cc1` (configuration not stated): the GI50 in the assay on SK-MEL-28 was 0.00344 µM (active); with MDA-MB-435, 0.004 µM (active); with SF-295, 0.0274 µM (active); in the assay with RPMI-8226 it was 0.0019 µM (active); with A498, 0.0282 µM (active); with NCI-H23, 0.00552 µM (active). Moreover, the GI50 in the assay with CCRF-CEM was 0.00177 µM (active); with UO-31 it was 0.136 µM (active); in the assay with A549 it was 0.0177 µM (active); with SK-OV-3 it was 0.0179 µM (active); in the assay with OVCAR-5, 0.00995 µM (active); with SF-539 it was 0.00102 µM (active). In addition, the GI50 in the assay on Hs-578T was 0.01 µM (active); in the assay on OVCAR-3 it was 0.01 µM (active); with SW-620 it was 0.00718 µM (active); with MOLT-4, 0.01 µM (active); with UACC-62 it was 0.00266 µM (active); in the assay on DU-145, 0.00364 µM (active).
